“Also recorded” adds a separate entry of the source. Marks after values point to notes of the source that are not given here.
Assay: Safety and tolerability: adverse events, dose-limiting toxicities, MTD, RP2D (Phase 1A/1B)
Format: in vivo
Procedure: This was an open-label, Phase 1, dose-escalation/dose-expansion study, conducted across six study centres in Australia. The dose-escalation phase evaluated twice-daily (BID) and once-daily (QD) dosing, and the dose-expansion phase evaluated the BID RP2D from the dose-escalation phase and food effects (Fig. 1). The food-effects cohort comprised two sequences: fast followed by fed (sequence 1) and fed followed by fast (sequence 2). […] The decision to proceed to the next dose cohort was determined by the Safety Monitoring Committee and followed a modified 3 + 3 escalation scheme. […] When ≥2 DLTs occurred in the first 23 days of a dose level, the next lower dose level was declared the MTD. Safety was monitored and DLTs were assessed in all dose cohorts. […] The food-effects cohort investigated the effects of food on the PK of pamiparib in patients with advanced solid tumours.
The QD dosing regimen was added as an amendment to the protocol with the purpose of exploring the feasibility of a more convenient regimen.
Safety and tolerability were assessed throughout the study by monitoring adverse events (AEs), serious AEs, clinical laboratory measurements and physical examinations. Adverse events were categorised according to their severity (National Cancer Institute Common Terminology Criteria for Adverse Events v4.03) and relationship to the study treatment.

## C[C@]12CCCN1CC1=NNC(=O)c3cc(F)cc4[nH]c2c1c34 [pamiparib]
120 mg BID (n = 5)
  Pyrexia, AE of any grade: 1 (20.0) n (%)
  Treatment-emergent AE: 5 (100.0) n (%)
  Treatment-emergent AE: Grade 3 or higher: 5 (100.0) n (%)
  Treatment-emergent AE: Leading to death: 0 (0.0) n (%)
  Treatment-emergent AE: Leading to dose interruption: 4 (80.0) n (%)
  Treatment-emergent AE: Leading to dose modification: 4 (80.0) n (%)
  Treatment-emergent AE: Leading to dose reduction: 1 (20.0) n (%)
  Treatment-emergent AE: Leading to treatment discontinuation: 2 (40.0) n (%)
  Treatment-emergent AE: Serious: 3 (60.0) n (%)
  Treatment-related AE: 5 (100.0) n (%)
  Treatment-related AE: Grade 3 or higher: 3 (60.0) n (%)
  Treatment-related AE: Leading to death: 0 (0.0) n (%)
  Treatment-related AE: Leading to dose interruption: 3 (60.0) n (%)
  Treatment-related AE: Leading to dose modification: 3 (60.0) n (%)
  Treatment-related AE: Leading to dose reduction: 1 (20.0) n (%)
  Treatment-related AE: Leading to treatment discontinuation: 2 (40.0) n (%)
  Treatment-related AE: Serious: 1 (20.0) n (%)
  Upper respiratory tract infection, AE of any grade: 0 (0.0) n (%)
  Urinary tract infection, AE of any grade: 2 (40.0) n (%)
  Vomiting, AE of any grade: 1 (20.0) n (%)
120 mg BID, two patients, n = 1 each
  Dose-limiting toxicities observed (description): Grade 2 nausea, grade 3 fatigue, and grade 3 paresthesia; also recorded: Grade 2 nausea and Grade 2 anorexia; also recorded: Grade 2 nausea, Grade 3 fatigue and Grade 3 paraesthesia
120 mg QD
  Diarrhea, AE: 50.0%
  Fatigue, AE: 75.0%
  Nausea, AE: 50.0%
120 mg QD (n=8)
  Dose-limiting toxicity: 0 (0.0) n (%)
  Treatment-emergent AE: 8 (100.0) n (%)
  Treatment-emergent AE: Grade 3 or higher: 5 (62.5) n (%)
  Treatment-emergent AE: Leading to death: 0 (0.0) n (%)
  Treatment-emergent AE: Leading to dose interruption: 6 (75.0) n (%)
  Treatment-emergent AE: Leading to dose modification: 6 (75.0) n (%)
  Treatment-emergent AE: Leading to dose reduction: 1 (12.5) n (%)
  Treatment-emergent AE: Leading to treatment discontinuation: 0 (0.0) n (%)
  Treatment-emergent AE: Serious: 2 (25.0) n (%)
  Treatment-related AE: 6 (75.0) n (%)
  Treatment-related AE: Grade 3 or higher: 3 (37.5) n (%)
  Treatment-related AE: Leading to death: 0 (0.0) n (%)
  Treatment-related AE: Leading to dose interruption: 4 (50.0) n (%)
  Treatment-related AE: Leading to dose modification: 4 (50.0) n (%)
  Treatment-related AE: Leading to dose reduction: 1 (12.5) n (%)
  Treatment-related AE: Leading to treatment discontinuation: 0 (0.0) n (%)
  Treatment-related AE: Serious: 0 (0.0) n (%)
160 mg QD
  Diarrhea, AE: 45.5%
  Fatigue, AE: 63.6%
  Nausea, AE: 90.9%
160 mg QD (n=11)
  Dose-limiting toxicity: 1 (9.1)^d n (%)
  Treatment-emergent AE: 11 (100.0) n (%)
  Treatment-emergent AE: Grade 3 or higher: 9 (81.8) n (%)
  Treatment-emergent AE: Leading to death: 0 (0.0) n (%)
  Treatment-emergent AE: Leading to dose interruption: 7 (63.6) n (%)
  Treatment-emergent AE: Leading to dose modification: 7 (63.6) n (%)
  Treatment-emergent AE: Leading to dose reduction: 0 (0.0) n (%)
  Treatment-emergent AE: Leading to treatment discontinuation: 2 (18.2) n (%)
  Treatment-emergent AE: Serious: 4 (36.4) n (%)
  Treatment-related AE: 11 (100.0) n (%)
  Treatment-related AE: Grade 3 or higher: 7 (63.6) n (%)
  Treatment-related AE: Leading to death: 0 (0.0) n (%)
  Treatment-related AE: Leading to dose interruption: 7 (63.6) n (%)
  Treatment-related AE: Leading to dose modification: 7 (63.6) n (%)
  Treatment-related AE: Leading to dose reduction: 0 (0.0) n (%)
  Treatment-related AE: Leading to treatment discontinuation: 2 (18.2) n (%)
  Treatment-related AE: Serious: 1 (9.1) n (%)
160 mg QD, one of 11
  Patients who experienced a DLT: 9%
160 mg QD, one patient
  Dose-limiting toxicities observed (description): grade 2 nausea
101 patients
  Serious AE: anemia: 4.0%
  Serious AE: intestinal obstruction: 4.0%
  Serious AE: malignant gastrointestinal obstruction: 3.0%

Reference: PMC8854719, “Phase 1A/1B dose-escalation and -expansion study to evaluate the safety, pharmacokinetics, food effects and antitumor activity of pamiparib in advanced solid tumours” (British Journal of Cancer, 2021)
